Source: patent US20240059698A1 (Accutar Biotechnology Inc., priority 2022, published 2024)

Assays:
Assay type in all cases: cell-based
[1] = test system: HCC827 cells; assay: Cell growth inhibition (CellTiter-Glo), HCC827; conditions: Homo sapiens, 72 h, 3 days
Method: (§1) 2. Cell Growth Inhibition for HCC827, HCC827-SVD, HCC827-ASV, HCC827-YVMA, and A431.
(§2) HCC827(ATCC), HCC827-SVD, HCC827-ASV, and HCC827-YVMA cells were seeded in 96-well plates at 5000 cells/well in 90 μL of RPMI growth medium containing 10% FBS and 1% Penicillin Streptomycin. A431 (ATCC) cells were seeded in 96-well plates at 5000 cells/well in 90 μL of DMEM growth medium containing 10% FBS and 1% Penicillin Streptomycin. Cells were incubated at 37° C. overnight and then administered with 10 μL 10× test compounds prepared in the growth medium at various concentrations. After administration of the compounds, cells were incubated at 37° C. for 3 days. Before the CellTiter-Glo assay, the plates were equilibrated at room temperature for approximately 30 minutes. 100 ul of CellTiter-Glo reagent (Promega) was added to each well. The plates were then incubated at room temperature for 10 minutes and luminescence was recorded by the EnSight® multimode plate reader (PerkinElmer). Table 7 listed selected compounds in cellular growth assay.

[2] = test system: HCC827-SVD cells (human EGFR exon 20 insertion mutant D770_N771insSVD); assay: Cell growth inhibition (CellTiter-Glo), HCC827-SVD; conditions: 72 h, 3 days
Procedure, shortened: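 HCC827 cells with endogenous EGFR knocked out and lentivirally expressing the insertion mutant (single clone) were seeded at 5000 cells/well in RPMI with 10% FBS. After overnight, compounds added; 3 days at 37 °C, then CellTiter-Glo luminescence.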

[3] = test system: HCC827-YVMA cells (human ERBB2 exon20 insertion mutant A775_G776ins YVMA); assay: Cell growth inhibition (CellTiter-Glo), HCC827-YVMA; conditions: 72 h, HCC827-YVMA cells, 3 days, CellTiter-Glo, read-out: Cell growth inhibition, GI50 (nM) HCC827-YVMA
Procedure, shortened: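 HCC827 cells transduced with lentiviral codon-optimized mutant (ERBB2 A775_G776insYVMA or EGFR V769_D770insASV), endogenous EGFR knocked out by CRISPR, single clone selected. Cells seeded overnight in RPMI/10% FBS, then exposed to serially diluted compounds at 37 °C for 3 days; viability read by CellTiter-Glo luminescence.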

[4] = test system: A431 cells; assay: Cell growth inhibition (CellTiter-Glo), A431; conditions: Homo sapiens, A-431, 72 h, 3 days
Method: as §1, §2

Row | GI50 [1] | GI50 [2] | GI50 [3] | GI50 [4] | SMILES
1 | < 50 nM | < 50 nM | < 50 nM | < 50 nM | C=CC(=O)N1CCC(c2c[nH]c3ncnc(Nc4ccc(OCc5cc(C(F)(F)F)ccn5)c(Cl)c4)c23)CC1 [Compound 113, 1-(4-(4-((3-chloro-4-((4-(trifluoromethyl)pyridin-2-yl)methoxy)phenyl)amino)-7H-pyrrolo[2,3-d]pyrimidin-5-yl)piperidin-1-yl)prop-2-en-1-one]
2 | < 50 nM | < 50 nM | < 50 nM | 50 to 200 nM | C=CC(=O)N1CCC(c2c[nH]c3ncnc(Nc4ccc(OCc5cnccn5)c(Cl)c4)c23)CC1 [Compound 116, 1-[4-[4-[3-chloro-4-(pyrazin-2-ylmethoxy)anilino]-7H-pyrrolo[2,3-d]pyrimidin-5-yl]-1-piperidyl]prop-2-en-1-one]
3 | < 50 nM | < 50 nM | < 50 nM | 50 to 200 nM | C=CC(=O)N1CCC(c2c[nH]c3ncnc(Nc4ccc(OCc5cscn5)c(Cl)c4)c23)CC1 [Compound 119, 1-[4-[4-[3-chloro-4-(thiazol-4-ylmethoxy)anilino]-7H-pyrrolo[2,3-d]pyrimidin-5-yl]-1-piperidyl]prop-2-en-1-one]
4 | 50 to 200 nM | < 50 nM | < 50 nM | > 1000 nM | C=CC(=O)N1CC(c2c[nH]c3ncnc(Nc4ccc(OCc5ccccn5)c(Cl)c4)c23)C1 [Compound 137, 1-(3-(4-((3-chloro-4-(pyridin-2-ylmethoxy)phenyl)amino)-7H-pyrrolo[2,3-d]pyrimidin-5-yl)azetidin-1-yl)prop-2-en-1-one]
5 | > 1000 nM | 50 to 200 nM | 200 to 1000 nM | > 1000 nM | C=CC(=O)N1CCC(c2c[nH]c3ncnc(Nc4ccc(Oc5ccc(-c6cc(C)[nH]c(=O)c6)cc5)c(Cl)c4F)c23)CC1 [Compound 138, 4-(4-(4-((5-(1-acryloylpiperidin-4-yl)-7H-pyrrolo[2,3-d]pyrimidin-4-yl)amino)-2-chloro-3-fluorophenoxy)phenyl)-6-methylpyridin-2(1H)-one]
6 | > 1000 nM | 50 to 200 nM | > 1000 nM | > 1000 nM | C=CC(=O)N1CCC(c2c[nH]c3ncnc(Nc4ccc(Oc5ccnc(N6C[C@H](OC)[C@H](OC)C6)c5)cc4F)c23)CC1 [Compound 139, 1-(4-(4-((4-((2-((3R,4S)-3,4-dimethoxypyrrolidin-1-yl)pyridin-4-yl)oxy)-2-fluorophenyl)amino)-7H-pyrrolo[2,3-d]pyrimidin-5-yl)piperidin-1-yl)prop-2-en-1-one]
7 | 200 to 1000 nM | 50 to 200 nM | 50 to 200 nM | > 1000 nM | C=CC(=O)N1CCC(c2c[nH]c3ncnc(Nc4ccc(Oc5ccnc(N6CCC(C(F)(F)F)C6)c5)cc4F)c23)CC1 (centres unmarked) [Compound 140, 1-(4-(4-((2-fluoro-4-((2-(3-(trifluoromethyl)pyrrolidin-1-yl)pyridin-4-yl)oxy)phenyl)amino)-7H-pyrrolo[2,3-d]pyrimidin-5-yl)piperidin-1-yl)prop-2-en-1-one]
8 | > 1000 nM | < 50 nM | < 50 nM | > 1000 nM | C=CC(=O)N1CCC(c2c[nH]c3ncnc(Nc4ccc(Oc5ccnc(N6C[C@@H](C)O[C@@H](C)C6)c5)c(Cl)c4F)c23)CC1 [Compound 142, 1-(4-(4-((3-chloro-4-((2-((2S,6R)-2,6-dimethylmorpholino)pyridin-4-yl)oxy)-2-fluorophenyl)amino)-7H-pyrrolo[2,3-d]pyrimidin-5-yl)piperidin-1-yl)prop-2-en-1-one]
9 | < 50 nM | < 50 nM | < 50 nM | > 1000 nM | C=CC(=O)N1CCC(c2c[nH]c3ncnc(Nc4ccc(Cl)c(Cl)c4F)c23)CC1 [Compound 143, 1-(4-(4-((3,4-dichloro-2-fluorophenyl)amino)-7H-pyrrolo[2,3-d]pyrimidin-5-yl)piperidin-1-yl)prop-2-en-1-one]
10 | > 1000 nM | 200 to 1000 nM | 200 to 1000 nM | > 1000 nM | C=CC(=O)N1CCC(c2c[nH]c3ncnc(Nc4ccc(Oc5ccnc(N6CCC(F)(F)C6)c5)cc4F)c23)CC1 [Compound 145]
11 | > 1000 nM | 200 to 1000 nM | 200 to 1000 nM | > 1000 nM | C=CC(=O)N1CCC(c2c[nH]c3ncnc(Nc4ccc(Oc5ccnc(NC6CCOCC6)c5)cc4F)c23)CC1 [Compound 146, 1-(4-(4-((2-fluoro-4-((2-((tetrahydro-2H-pyran-4-yl)amino)pyridin-4-yl)oxy)phenyl)amino)-7H-pyrrolo[2,3-d]pyrimidin-5-yl)piperidin-1-yl)prop-2-en-1-one]
12 | > 1000 nM | 50 to 200 nM | 50 to 200 nM | > 1000 nM | C=CC(=O)N1CCC(c2c[nH]c3ncnc(Nc4ccc(Oc5ccnc(N6CCC[C@@H](OC)C6)c5)cc4F)c23)CC1 [Compound 147, (R)-1-(4-(4-((2-fluoro-4-((2-(3-methoxypiperidin-1-yl)pyridin-4-yl)oxy)phenyl)amino)-7H-pyrrolo[2,3-d]pyrimidin-5-yl)piperidin-1-yl)prop-2-en-1-one]
13 | > 1000 nM | 50 to 200 nM | 200 to 1000 nM | > 1000 nM | C=CC(=O)N1CCC(c2c[nH]c3ncnc(Nc4ccc(Oc5ccnc(N6CC7C(C6)C7(F)F)c5)cc4F)c23)CC1 (centres unmarked) [Compound 148, 1-(4-(4-((4-((2-(6,6-difluoro-3-azabicyclo[3.1.0]hexan-3-yl)pyridin-4-yl)oxy)-2-fluorophenyl)amino)-7H-pyrrolo[2,3-d]pyrimidin-5-yl)piperidin-1-yl)prop-2-en-1-one]
14 | > 1000 nM | 50 to 200 nM | 50 to 200 nM | > 1000 nM | C=CC(=O)N1CCC(c2c[nH]c3ncnc(Nc4ccc(Oc5nc(-c6cnc(OC)nc6)cs5)cc4F)c23)CC1 [Compound 149, 1-(4-(4-((2-fluoro-4-((4-(2-methoxypyrimidin-5-yl)thiazol-2-yl)oxy)phenyl)amino)-7H-pyrrolo[2,3-d]pyrimidin-5-yl)piperidin-1-yl)prop-2-en-1-one]
15 | 200 to 1000 nM | 50 to 200 nM | 50 to 200 nM | > 1000 nM | C=CC(=O)N1CCC(c2c[nH]c3ncnc(Nc4ccc(Oc5ccn(-c6cnc(C)c(F)c6)n5)cc4F)c23)CC1 [Compound 150, 1-(4-(4-((2-fluoro-4-((1-(5-fluoro-6-methylpyridin-3-yl)-1H-pyrazol-3-yl)oxy)phenyl)amino)-7H-pyrrolo[2,3-d]pyrimidin-5-yl)piperidin-1-yl)prop-2-en-1-one]
16 | < 50 nM | < 50 nM | < 50 nM | < 50 nM | C=CC(=O)N1CCC(c2c[nH]c3ncnc(Nc4ccc(OCc5nccs5)c(Cl)c4)c23)CC1 [Compound 153, 1-(4-(4-((3-chloro-4-(thiazol-2-ylmethoxy)phenyl)amino)-7H-pyrrolo[2,3-d]pyrimidin-5-yl)piperidin-1-yl)prop-2-en-1-one]
17 | < 50 nM | < 50 nM | < 50 nM | > 1000 nM | C=CC(=O)N1CCN(c2n[nH]c3ncnc(Nc4ccc(OCc5ccccn5)c(Cl)c4)c23)CC1 [Compound 163, 1-(4-(4-((3-chloro-4-(pyridin-2-ylmethoxy)phenyl)amino)-1H-pyrazolo[3,4-d]pyrimidin-3-yl)piperazin-1-yl)prop-2-en-1-one]
18 | 200 to 1000 nM | 50 to 200 nM | 50 to 200 nM | > 1000 nM | C=CC(=O)N1CCC(c2n[nH]c3ncnc(Nc4ccc(O[C@H]5CCCN(S(=O)(=O)c6ccccc6)C5)cc4F)c23)CC1 [Compound 165, (S)-1-(4-(4-((2-fluoro-4-((1-(phenylsulfonyl)piperidin-3-yl)oxy)phenyl)amino)-1H-pyrazolo[3,4-d]pyrimidin-3-yl)piperidin-1-yl)prop-2-en-1-one]
19 | 200 to 1000 nM | > 1000 nM | > 1000 nM | > 1000 nM | C=CC(=O)N1CC(Nc2n[nH]c3ncnc(Nc4ccc(OCc5ccccn5)c(Cl)c4)c23)C1 [Compound 168, 1-(3-((4-((3-chloro-4-(pyridin-2-ylmethoxy)phenyl)amino)-1H-pyrazolo[3,4-d]pyrimidin-3-yl)amino)azetidin-1-yl)prop-2-en-1-one]
20 | > 1000 nM | > 1000 nM | > 1000 nM | > 1000 nM | C=CC(=O)N1CCC(Nc2n[nH]c3ncnc(Nc4ccc(OCc5ccccn5)c(Cl)c4)c23)CC1 [Compound 169, 1-(4-((4-((3-chloro-4-(pyridin-2-ylmethoxy)phenyl)amino)-1H-pyrazolo[3,4-d]pyrimidin-3-yl)amino)piperidin-1-yl)prop-2-en-1-one]
